Results reported in PubChem BioAssay (NCI).
“And” between values parts separate entries of the source, which are not always exact repeats. Identical values can stand only once.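 Assay format: 96-well plates, 48-hour exposure. At the GI50, growth is halved. TGI: total growth inhibition.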

What was measured:
Assay in all cases: NCI-60 cell line screen, 48 h
[1] = system: 786-0 renal
[2] = system: A498 renal
[3] = system: A549 NSCLC
[4] = system: ACHN renal
[5] = system: BT-549 breast
[6] = system: CAKI-1 renal
[7] = system: CCRF-CEM leukemia
[8] = system: DLD-1 colon
[9] = system: DU-145 prostate
[10] = system: EKVX NSCLC
[11] = system: HCC-2998 colon
[12] = system: HCT-116 colon
[13] = system: HCT-15 colon
[14] = system: HL-60(TB) leukemia
[15] = system: HOP-62 NSCLC
[16] = system: HS 578T breast
[17] = system: HT29 colon
[18] = system: IGROV1 ovarian
[19] = system: K-562 leukemia
[20] = system: KM12 colon
[21] = system: KM20L2 colon
[22] = system: LOX IMVI melanoma
[23] = system: LXFL 529 NSCLC
[24] = system: M14 melanoma
[25] = system: M19-MEL melanoma
[26] = system: MALME-3M melanoma
[27] = system: MCF7 breast
[28] = system: MDA-MB-231 breast
[29] = system: MDA-MB-435
[30] = system: MDA-N
[31] = system: MOLT-4 leukemia
[32] = system: NCI-H226 lung
[33] = system: NCI-H23 lung
[34] = system: NCI-H460 lung
[35] = system: NCI/ADR-RES ovarian
[36] = system: OVCAR-3 ovarian
[37] = system: OVCAR-4 ovarian
[38] = system: OVCAR-5 ovarian
[39] = system: PC-3 prostate
[40] = system: RPMI-8226 leukemia
[41] = system: RXF 393 renal
[42] = system: SF-268 CNS
[43] = system: SF-295 CNS
[44] = system: SF-539 CNS
[45] = system: SK-MEL-28 melanoma
[46] = system: SK-MEL-5 melanoma
[47] = system: SK-OV-3 ovarian
[48] = system: SN12C renal
[49] = system: SNB-19 CNS
[50] = system: SNB-75 CNS
[51] = system: SW-620 colon
[52] = system: T-47D breast
[53] = system: TK-10 renal
[54] = system: UACC-257 melanoma
[55] = system: UACC-62 melanoma
[56] = system: UO-31 renal
[57] = system: XF 498 CNS

## CC(=O)O[C@H]1C(=O)[C@@]2(C)C([C@H](OC(=O)c3ccccc3)[C@]3(O)C[C@H](OC(=O)[C@H](O)[C@@H](NC(=O)c4ccc(Cl)cc4)c4ccccc4)C(C)=C1C3(C)C)C1(OC(C)=O)CO[C@@H]1C[C@@H]2O (some centres undefined)
[1]
  GI50: 0.045 µM
  TGI: 3.09 µM and 29.7 µM
[2]
  GI50: 11.1 µM
  TGI: 25 µM and > 100 µM
[3]
  GI50: 0.0219 µM
  TGI: 25 µM and > 100 µM
[4]
  GI50: 10.3 µM
  TGI: 25 µM and > 100 µM
[5]
  TGI: 0.212 µM
[6]
  GI50: 0.0269 µM
  TGI: 25 µM and 32.3 µM
[7]
  TGI: 52.2 µM
[8]
  TGI: > 100 µM
[9]
  TGI: 0.452 µM
[10]
  GI50: 1.11 µM
  TGI: 25 µM and > 100 µM
[11]
  TGI: 0.608 µM
[12]
  TGI: 3.31 µM and 1.85 µM
[13]
  GI50: 0.2 µM
  TGI: 25 µM and 4.92 µM
[14]
  TGI: 0.00466 µM
[15]
  GI50: 0.261 µM
  TGI: 25 µM and 25.2 µM
[16]
  TGI: 0.185 µM
[17]
  TGI: 10.4 µM
[18]
  GI50: 0.0134 µM
  TGI: 25 µM and 28.2 µM
[19]
  TGI: > 25 µM and 12.5 µM
[20]
  TGI: 25 µM
[21]
  TGI: > 100 µM
[22]
  TGI: 49.6 µM
[23]
  TGI: 57.2 µM
[24]
  TGI: 0.733 µM
[25]
  TGI: 14.1 µM
[26]
  GI50: 0.0599 µM
  TGI: 25 µM and 24.1 µM
[27]
  TGI: 25 µM
[28]
  TGI: 25 µM
[29]
  TGI: 0.0126 µM
[30]
  TGI: 0.0195 µM
[31]
  TGI: 25 µM and 4.77 µM
[32]
  TGI: 25 µM
[33]
  TGI: 25 µM and > 100 µM
[34]
  TGI: 25 µM and > 100 µM
[35]
  TGI: 25 µM
[36]
  TGI: 0.108 µM
[37]
  GI50: 4.89 µM
  TGI: 25 µM and 68 µM
[38]
  TGI: 25 µM
[39]
  TGI: 0.217 µM
[40]
  TGI: 11.7 µM
[41]
  GI50: 0.157 µM
[42]
  TGI: 25 µM and 82.5 µM
[43]
  GI50: 0.177 µM
[44]
  GI50: 0.0119 µM
  TGI: 0.273 µM and 0.0407 µM
[45]
  TGI: 25 µM
[46]
  TGI: 13.5 µM
[47]
  TGI: 13.7 µM and 36.7 µM
[48]
  GI50: 0.0166 µM
  TGI: 25 µM and 83.2 µM
[49]
  GI50: 0.0849 µM
  TGI: 25 µM and > 100 µM
[50]
  TGI: 0.603 µM and 0.178 µM
[51]
  TGI: 25 µM and > 100 µM
[52]
  TGI: 25 µM
[53]
  GI50: 0.254 µM
  TGI: 25 µM and 47.7 µM
[54]
  GI50: 0.013 µM
  TGI: 25 µM and 36.8 µM
[55]
  TGI: 0.178 µM
[56]
  GI50: 4.77 µM
  TGI: 25 µM and 53.8 µM
[57]
  TGI: 3.73 µM
